Measured values taken from ChEMBL document CHEMBL3046164, “A facile synthesis of some 3-cyano-1,4,6-trisubstituted-2(1H)-pyridinones and their biological evaluation as anticancer agents” (2011).
Several values for one entry are separate records, joined by “and”; a condition that tells them apart may be missing. Equal values may be shown once.

Legend:
Assay type in all cases: functional
MDA-MB-231 = assay: Cytotoxicity against Homo sapiens (human) MDA-MB-231 cells after 48 hr by SRB assay; conditions: MDA-MB-231, 48 h
HOP-92 [1] = assay: Growth inhibition of Homo sapiens (human) HOP92 cells at 10 uM after 48 hr by SRB assay; conditions: HOP-92, 48 h, read-out: GI
UO-31 [2] = assay: Cytotoxicity against Homo sapiens (human) UO31 cells after 48 hr by SRB assay; conditions: UO-31, 48 h
SF-539 = assay: Cytotoxicity against Homo sapiens (human) SF539 cells after 48 hr by SRB assay; conditions: SF-539, 48 h
MCF7 = assay: Growth inhibition of Homo sapiens (human) MCF7 cells at 10 uM after 48 hr by SRB assay; conditions: MCF7, 48 h, read-out: GI
T47D [3] = assay: Growth inhibition of Homo sapiens (human) T47D cells at 10 uM after 48 hr by SRB assay; conditions: read-out: GI
HL-60(TB) [4] = assay: Cytotoxicity against Homo sapiens (human) HL-60(TB) cells after 48 hr by SRB assay; conditions: HL-60, 48 h
K562 = assay: Growth inhibition of Homo sapiens (human) K562 cells at 10 uM after 48 hr by SRB assay; conditions: K562, 48 h, read-out: GI
SF-268 = assay: Cytotoxicity against Homo sapiens (human) SF268 cells after 48 hr by SRB assay; conditions: SF-268, 48 h
OVCAR-3 = assay: Cytotoxicity against Homo sapiens (human) OVCAR3 cells after 48 hr by SRB assay; conditions: OVCAR-3, 48 h
A498 [5] = assay: Cytotoxicity against Homo sapiens (human) A498 cells after 48 hr by SRB assay; conditions: A498, 48 h
IGROV-1 = assay: Cytotoxicity against Homo sapiens (human) IGROV1 cells after 48 hr by SRB assay; conditions: IGROV-1, 48 h
T47D [6] = assay: Cytotoxicity against Homo sapiens (human) T47D cells after 48 hr by SRB assay
SNB-75 [7] = assay: Growth inhibition of Homo sapiens (human) SNB75 cells at 10 uM after 48 hr by SRB assay; conditions: SNB-75, 48 h, read-out: GI
UACC-62 = assay: Cytotoxicity against Homo sapiens (human) UACC62 cells after 48 hr by SRB assay; conditions: UACC-62, 48 h
SNB-75 [8] = assay: Cytotoxicity against Homo sapiens (human) SNB75 cells after 48 hr by SRB assay; conditions: SNB-75, 48 h
HCC 2998 [9] = assay: Cytotoxicity against Homo sapiens (human) HCC2998 cells after 48 hr by SRB assay; conditions: HCC 2998, 48 h
SR = assay: Cytotoxicity against Homo sapiens (human) SR cells after 48 hr by SRB assay
CCRF-CEM [10] = assay: Cytotoxicity against Homo sapiens (human) CCRF-CEM cells after 48 hr by SRB assay
OVCAR-4 = assay: Cytotoxicity against Homo sapiens (human) OVCAR4 cells after 48 hr by SRB assay; conditions: OVCAR-4, 48 h
HOP-62 [11] = assay: Cytotoxicity against Homo sapiens (human) HOP62 cells after 48 hr by SRB assay; conditions: HOP-62, 48 h
EKVX [12] = assay: Cytotoxicity against Homo sapiens (human) EKVX cells after 48 hr by SRB assay
RPMI-8226 [13] = assay: Cytotoxicity against Homo sapiens (human) RPMI8226 cells after 48 hr by SRB assay
HOP-92 [14] = assay: Cytotoxicity against Homo sapiens (human) HOP92 cells after 48 hr by SRB assay; conditions: HOP-92, 48 h
PC-3 = assay: Growth inhibition of Homo sapiens (human) PC3 cells at 10 uM after 48 hr by SRB assay; conditions: PC-3, 48 h, read-out: GI
BT-549 = assay: Cytotoxicity against Homo sapiens (human) BT549 cells after 48 hr by SRB assay; conditions: BT-549, 48 h
CCRF-CEM [15] = assay: Growth inhibition of Homo sapiens (human) CCRF-CEM cells at 10 uM after 48 hr by SRB assay; conditions: read-out: GI
UO-31 [16] = assay: Growth inhibition of Homo sapiens (human) UO31 cells at 10 uM after 48 hr by SRB assay; conditions: UO-31, 48 h, read-out: GI
OVCAR-5 = assay: Growth inhibition of Homo sapiens (human) OVCAR5 cells at 10 uM after 48 hr by SRB assay; conditions: OVCAR-5, 48 h, read-out: GI
A549 = assay: Growth inhibition of Homo sapiens (human) A549 cells at 10 uM after 48 hr by SRB assay; conditions: A549, 48 h, read-out: GI
U-251 = assay: Growth inhibition of Homo sapiens (human) U251 cells at 10 uM after 48 hr by SRB assay; conditions: U-251, 48 h, read-out: GI
EKVX [17] = assay: Growth inhibition of Homo sapiens (human) EKVX cells at 10 uM after 48 hr by SRB assay; conditions: read-out: GI
CAKI-1 = assay: Growth inhibition of Homo sapiens (human) CAKI-1 cells at 10 uM after 48 hr by SRB assay; conditions: CAKI-1, 48 h, read-out: GI
HL-60(TB) [18] = assay: Growth inhibition of Homo sapiens (human) HL-60(TB) cells at 10 uM after 48 hr by SRB assay; conditions: HL-60, 48 h, read-out: GI
HOP-62 [19] = assay: Growth inhibition of Homo sapiens (human) HOP62 cells at 10 uM after 48 hr by SRB assay; conditions: HOP-62, 48 h, read-out: GI
MDA-MB-435 = assay: Growth inhibition of Homo sapiens (human) MDA-MB-435 cells at 10 uM after 48 hr by SRB assay; conditions: MDA-MB-435, 48 h, read-out: GI
786-0 = assay: Growth inhibition of Homo sapiens (human) 786-0 cells at 10 uM after 48 hr by SRB assay; conditions: 786-0, 48 h, read-out: GI
SK-MEL-5 = assay: Growth inhibition of Homo sapiens (human) SK-MEL-5 cells at 10 uM after 48 hr by SRB assay; conditions: SK-MEL-5, 48 h, read-out: GI
COLO 205 = assay: Growth inhibition of Homo sapiens (human) COLO205 cells at 10 uM after 48 hr by SRB assay; conditions: COLO 205, 48 h, read-out: GI
HCC 2998 [20] = assay: Growth inhibition of Homo sapiens (human) HCC2998 cells at 10 uM after 48 hr by SRB assay; conditions: HCC 2998, 48 h, read-out: GI
A498 [21] = assay: Growth inhibition of Homo sapiens (human) A498 cells at 10 uM after 48 hr by SRB assay; conditions: A498, 48 h, read-out: GI
RPMI-8226 [22] = assay: Growth inhibition of Homo sapiens (human) RPMI8226 cells at 10 uM after 48 hr by SRB assay; conditions: RPMI-8226, 48 h, read-out: GI
SF-295 = assay: Growth inhibition of Homo sapiens (human) SF295 cells at 10 uM after 48 hr by SRB assay; conditions: SF-295, 48 h, read-out: GI
M14 = assay: Growth inhibition of Homo sapiens (human) M14 cells at 10 uM after 48 hr by SRB assay; conditions: M14, 48 h, read-out: GI
NCI-H460 = assay: Growth inhibition of Homo sapiens (human) NCI-H460 cells at 10 uM after 48 hr by SRB assay; conditions: NCI-H460, 48 h, read-out: GI
LOX IMVI = assay: Growth inhibition of Homo sapiens (human) LOXIMVI cells at 10 uM after 48 hr by SRB assay; conditions: read-out: GI

## COc1ccc(-c2cc(-c3cccn3C)c(C#N)c3nnc(C)n23)cc1OC
MDA-MB-231
  GI50: > 100 µM
HOP-92 [1]
  inhibition of growth at 10 µM: 48%
UO-31 [2]
  GI50: > 100 µM
SF-539
  GI50: > 100 µM
MCF7
  inhibition of growth at 10 µM: 29%
T47D [3]
  inhibition of growth at 10 µM: 34.3%
HL-60(TB) [4]
  GI50: > 100 µM
K562
  inhibition of growth at 10 µM: 41.5%
SF-268
  GI50: > 100 µM
OVCAR-3
  GI50: > 100 µM
A498 [5]
  GI50: 25.7 µM
IGROV-1
  GI50: > 100 µM
T47D [6]
  GI50: > 100 µM
SNB-75 [7]
  inhibition of growth at 10 µM: 25.8%
UACC-62
  GI50: 95.5 µM
SNB-75 [8]
  GI50: 44.7 µM
HCC 2998 [9]
  GI50: > 100 µM
SR
  GI50: > 100 µM
CCRF-CEM [10]
  GI50: > 100 µM
OVCAR-4
  GI50: > 100 µM
HOP-62 [11]
  GI50: 37.1 µM
EKVX [12]
  GI50: 0.01 µM
  TGI: 0.03 µM
RPMI-8226 [13]
  GI50: 45.7 µM and 19 µM
HOP-92 [14]
  GI50: > 100 µM
PC-3
  inhibition of growth at 10 µM: 23.8%
BT-549
  GI50: > 100 µM
CCRF-CEM [15]
  inhibition of growth at 10 µM: 39.2%

## Cn1cccc1-c1cc(-c2ccc(Br)cc2)n(C=O)c(=O)c1C#N
HOP-92 [1]
  inhibition of growth at 10 µM: 24.2%
UO-31 [16]
  inhibition of growth at 10 µM: 29.7%
K562
  inhibition of growth at 10 µM: 54.8%
OVCAR-5
  inhibition of growth at 10 µM: 26.9%

## Cn1cccc1-c1cc(-c2ccc(Br)cc2)n(C(=S)Nc2ccc(F)cc2)c(=O)c1C#N
MDA-MB-231
  GI50: > 100 µM
HOP-92 [1]
  inhibition of growth at 10 µM: 39.6%
UO-31 [2]
  GI50: 13.8 µM
  LC50: 54.9 µM
  TGI: 27.5 µM
A549
  inhibition of growth at 10 µM: 47.8%
SF-539
  GI50: > 100 µM
U-251
  inhibition of growth at 10 µM: 26.3%
EKVX [17]
  inhibition of growth at 10 µM: 29.7%
CAKI-1
  inhibition of growth at 10 µM: 30.3%
HL-60(TB) [18]
  inhibition of growth at 10 µM: 82.3%
HOP-62 [19]
  inhibition of growth at 10 µM: 34.5%
HL-60(TB) [4]
  GI50: 14.5 µM
MDA-MB-435
  inhibition of growth at 10 µM: 35.1%
786-0
  inhibition of growth at 10 µM: 28.8%
K562
  inhibition of growth at 10 µM: 60%
SF-268
  GI50: 20.4 µM
OVCAR-3
  GI50: > 100 µM
A498 [5]
  GI50: 17.8 µM
IGROV-1
  GI50: 22.9 µM
SK-MEL-5
  inhibition of growth at 10 µM: 33.5%
T47D [6]
  GI50: > 100 µM
COLO 205
  inhibition of growth at 10 µM: 45.6%
SNB-75 [7]
  inhibition of growth at 10 µM: 42.7%
UACC-62
  GI50: 72.4 µM
SNB-75 [8]
  GI50: 38 µM
HCC 2998 [9]
  GI50: > 100 µM
HCC 2998 [20]
  inhibition of growth at 10 µM: 27.6%
SR
  GI50: > 100 µM
A498 [21]
  inhibition of growth at 10 µM: 27.6%
CCRF-CEM [10]
  GI50: > 100 µM
OVCAR-4
  GI50: > 100 µM
RPMI-8226 [22]
  inhibition of growth at 10 µM: 59.2%
SF-295
  inhibition of growth at 10 µM: 40.2%
HOP-62 [11]
  GI50: 37.1 µM
M14
  inhibition of growth at 10 µM: 29.1%
NCI-H460
  inhibition of growth at 10 µM: 31.6%
EKVX [12]
  GI50: 0.01 µM
  TGI: 0.03 µM
RPMI-8226 [13]; Homo sapiens, RPMI-8226, 48 h
  GI50: > 100 µM
HOP-92 [14]
  GI50: > 100 µM
BT-549
  GI50: > 100 µM
LOX IMVI
  inhibition of growth at 10 µM: 23%
CCRF-CEM [15]
  inhibition of growth at 10 µM: 48.3%
